# Data reported in patent US20130310256A1, “HERBICIDAL COMPOSITIONS COMPRISING 4-AMINO-3-CHLORO-5-FLUORO-6-(4-CHLORO-2-FLUORO-3-METHOXYPHENYL) PYRIDINE-2-CARBOXYLIC ACID OR A DERIVATIVE THEREOF AND VLCFA AND LIPID SYNTHESIS INHIBITING HERBICIDES” (DOW AGROSCIENCES LLC, priority 2008, published 2013).
# Where “and” joins values, the source holds several entries; their conditions need not be identical. Equal values may be shown once. Read-outs that look alike come from different tables or passages of the source.
# Experiments:
# ECHCG = experiment: Example V: field trial, in-water application to transplanted rice, Niigata, Japan; format: in vivo, Echinochloa crus-galli; conditions: early post-emergence; for Visual Weed Control ECHCG (11 DAA) Obs / Visual Weed Control ECHCG Obs: 11 DAA
# Procedure: Post and pre-emergence field trials were conducted in Niigata, Japan. Trial sites were located in commercially grown fields of transplanted rice (Oryza sativa, variety: Koshihikari) using standard herbicide small plot research methodology. The trial plot size was 2 meters (m)×2 m with 3 replications. The nursery plants were grown in the greenhouse using practical methods and transplanted into the field at the 2.5-leaf stage on May 7, 2012. The row and in-row spaces were 30 cm and 17 cm, respectively. The crop was grown using normal cultural practices for fertilization, water management and maintenance to ensure good growth of the crop and the weeds.
# Treatments consisted of the benzyl ester of 4-amino-3-chloro-5-fluoro-6-(4-chloro-2-fluoro-3-methoxyphenyl)pyridine-2-carboxylic acid (Compound A) formulated as an SC (suspension concentrate) and various herbicidal components alone and in combination. Compound A benzyl ester was applied on an active ingredient basis. The herbicidal components were applied on an active ingredient basis and included very long chain fatty acid (VLCFA) synthesis-inhibiting and fatty acid/lipid biosynthesis herbicides pretilachlor formulated as a commercially available granular formulation and benfuresate formulated as a commercially available flowable formulation.
# Compound A benzyl ester SC was once diluted in 100 mL water in the 200 mL bottle/plot to achieve the desired rates and applied by water injection. Water injection applications were made by hand as evenly as possible. Pretilachlor was applied by hand, and benfuresate was applied using a pipette to achieve the desired rates. Each compound in mixture treatments was applied separately and successively. Water depth was 3 cm at application. […] Visual weed control was scored on a scale of 0 to 100 percent where 0 corresponds to no injury and 100 corresponds to complete kill.
# All treatment results, both for the single product and mixtures, are an average of 3 replicates. The trial sites had naturally occurring populations of weeds. The weed spectrum included, but was not limited to, common barnyardgrass (Echinochloa crus-galli, ECHCG), monochoria (Monochoria vaginalis, MOOVA), Japanese bulrush (Scirpus juncoides, SCPJU), kuroguwai (Eleocharis kuroguwai, ELOKU), common falsepimpernel (Lindernia pyxidaria, LIDPY), Souchet tardif (Cyperus serotinus, CYPSE), small-flower flatsedge (Cyperus difformis, CYPDI), American waterwort (Elatine triandra, ELTTR), and swamp smartweed (Polygonum hydropiperoides, POLHP).
# Colby's equation was used to determine the herbicidal effects expected from the mixtures (Colby, S. R. 1967. Calculation of the synergistic and antagonistic response of herbicide combinations. Weeds 15:20-22.).
# Some of the compounds tested, application rates employed, plant species tested, and results for submerged (weeds have not yet emerged from the flood water) weed control are given in Table 54. Some of the compounds tested, application rates employed, plant species tested, and results for early postemergence weed control are given in Tables 55-56.
# ECHOR = experiment: Example II: in-water applied weed control, transplanted paddy rice, greenhouse; format: in vivo, Echinochloa oryzoides (Ard.) Fritsch (early watergrass)
# Outline: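 Transplanted rice and weeds at the first to fourth true leaf stage in flooded mud pots (pH ~7.6 soil), greenhouse ~29/26 °C, 14 h photoperiod. Compound A (acid equivalent) and VLCFA/lipid-synthesis herbicides (active ingredient) injected into the paddy water in 1.25% crop oil concentrate. Injury scored visually at ~3 weeks versus untreated, 0–100%.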
smiles,measurement,setting,value
"CCS(=O)(=O)Oc1ccc2c(c1)C(C)(C)CO2 [Benfuresate, 2,3-dihydro-3,3-dimethyl-5-benzofuranyl ethanesulfonate]",Visual Weed Control ECHCG (11 DAA) Obs,ECHCG; 600 gai/ha,6.7%
same,Visual Weed Control ECHCG (16 DAA) Obs,ECHCG; 600 gai/ha,20.0%
same,pest or weed control at 150 g/ha,"ECHOR; Echinochloa oryzoides, 528 h, 150 gai/ha (Full Slot), 22 DAA, read-out: Visual Weed Control ECHOR Obs",0%
"CCN(CC)C(=O)n1cnc(S(=O)(=O)c2c(C)cc(C)cc2C)n1 [Cafenstrole, N,N-diethyl-3-[(2,4,6-trimethylphenyl)sulfonyl]-1H-1,2,4-triazole-1-carboxamide]",pest or weed control at 52.5 g/ha,"ECHOR; Echinochloa oryzoides, 504 h, 52.5 gai/ha (Himeadow WP), 21 DAA, read-out: Visual Weed Control ECHOR Obs",10%
same,pest or weed control at 52.5 g/ha,"ECHOR; Echinochloa oryzoides, 504 h, 52.5 gai/ha (Lapost Flowable), 21 DAA, read-out: Visual Weed Control ECHOR Obs",70%
same,pest or weed control at 105 g/ha,"ECHOR; Echinochloa oryzoides, 504 h, 105 gai/ha (Himeadow WP), 21 DAA, read-out: Visual Weed Control ECHOR Obs",30%
"COc1c(Cl)ccc(-c2nc(C(=O)O)c(Cl)c(N)c2F)c1F [Compound A Acid, 4-amino-3-chloro-6-(4-chloro-2-fluoro-3-methoxyphenyl)-5-fluoropyridine-2-carboxylic acid]",Visual Weed Control (%) - 20 DAA ECHOR Obs,ECHOR; 8.75 gae/ha,10%
same,Visual Weed Control (%) - 20 DAA ECHOR Obs,ECHOR; 17.5 gae/ha,25%
same,Visual Weed Control (%) - 21 DAA ECHOR Obs,ECHOR; 17.5 gae/ha,25% and 20%
same,Visual Weed Control (%) - 20 DAA ECHOR Obs,ECHOR; 35 gae/ha,25%
same,Visual Weed Control (%) - 21 DAA ECHOR Obs,ECHOR; 35 gae/ha,30% and 35%
same,pest or weed control at 35 g/ha,"ECHOR; Echinochloa oryzoides, 504 h, 35 gae/ha, 21 DAA, read-out: Visual Weed Control ECHOR Obs",30%
"COc1c(Cl)ccc(-c2nc(C(=O)OCc3ccccc3)c(Cl)c(N)c2F)c1F [Compound A Benzyl Ester, benzyl ester of 4-amino-3-chloro-5-fluoro-6-(4-chloro-2-fluoro-3-methoxy-phenyl)pyridine-2-carboxylic acid]",Visual Weed Control ECHCG (11 DAA) Obs,ECHCG; 100 gai/ha,3.3%
same,Visual Weed Control ECHCG Obs,ECHCG; 100 gai/ha,6.7%
same,Visual Weed Control ECHCG (16 DAA) Obs,ECHCG; 100 gai/ha,20.0%
same,Visual Weed Control (%) - 20 DAA ECHOR Obs,ECHOR; 4.38 gae/ha,10%
same,Visual Weed Control (%) - 20 DAA ECHOR Obs,ECHOR; 8.75 gae/ha,20%
same,Visual Weed Control (%) - 21 DAA ECHOR Obs,ECHOR; 8.75 gae/ha,15% and 25%
same,Visual Weed Control (%) - 20 DAA ECHOR Obs,ECHOR; 17.5 gae/ha,50%
same,pest or weed control at 4.38 g/ha,"ECHOR; Echinochloa oryzoides, 480 h, 4.38 gae/ha, 20 DAA, read-out: Visual Weed Control ECHOR Obs",10%
same,pest or weed control at 8.75 g/ha,"ECHOR; Echinochloa oryzoides, 480 h, 8.75 gae/ha, 20 DAA, read-out: Visual Weed Control ECHOR Obs",20%
same,pest or weed control at 17.5 g/ha,"ECHOR; Echinochloa oryzoides, 480 h, 17.5 gae/ha, 20 DAA, read-out: Visual Weed Control ECHOR Obs",50%
same,pest or weed control at 8.75 g/ha,"ECHOR; Echinochloa oryzoides, 504 h, 8.75 gae/ha, 21 DAA, read-out: Visual Weed Control ECHOR Obs",15%
same,pest or weed control at 8.75 g/ha,"ECHOR; Echinochloa oryzoides, 528 h, 8.75 gae/ha, 22 DAA, read-out: Visual Weed Control ECHOR Obs",35%
same,pest or weed control at 17.5 g/ha,"ECHOR; Echinochloa oryzoides, 528 h, 17.5 gae/ha, 22 DAA, read-out: Visual Weed Control ECHOR Obs",30%
"CCCOCCN(C(=O)CCl)c1c(CC)cccc1CC [Pretilachlor, 2-chloro-N-(2,6-diethylphenyl)-N-(2-propoxyethyl)acetamide]",Visual Weed Control ECHCG Obs,ECHCG; 400 gai/ha,46.7%
same,Visual Weed Control (%) - 20 DAA ECHOR Obs,ECHOR; 75 gai/ha,0%
same,Visual Weed Control (%) - 20 DAA ECHOR Obs,ECHOR; 150 gai/ha,30%
